# Source: the supplement of paper PMC8149375
# How the values were obtained:
# Details in all cases: treatment: drug alone; 5 days
# [1] = test system: 786-O; experiment: AUC of dose-response viability curve, drug alone (arbitrary (AUC of normalised viability)); higher = less growth inhibition
# Procedure: (§1)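 Primary HTS: 8 RCC cell lines treated with 8 doses (up to 10 uM) of each library drug alone for 5 days; viability read by CellTiter-Glo and normalised to DMSO. GI50 was fitted with XLfit (4-parameter), AUC is the area under the dose-response curve, and minimum viability is the lowest fraction of DMSO viability across doses.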
# [2] = test system: UO-31; experiment: as above
# Procedure: as §1
# [3] = test system: SN12C; experiment: as above
# Procedure: as §1
# [4] = test system: CAKI-1; experiment: as above
# Procedure: as §1
# [5] = test system: A498; experiment: as above
# Procedure: as §1
# [6] = test system: TK-10; experiment: as above
# Procedure: as §1
# [7] = test system: ACHN; experiment: as above
# Procedure: as §1
# [8] = test system: 769-P; experiment: as above
# Procedure: as §1
# [9] = test system: 786-O; experiment: minimum viability across doses, drug alone, relative to DMSO (fraction); higher = less growth inhibition
# Procedure: as §1
# [10] = test system: UO-31; experiment: as above
# Procedure: as §1
# [11] = test system: SN12C; experiment: as above
# Procedure: as §1
# [12] = test system: CAKI-1; experiment: as above
# Procedure: as §1
# [13] = test system: A498; experiment: as above
# Procedure: as §1
# [14] = test system: TK-10; experiment: as above
# Procedure: as §1
# [15] = test system: ACHN; experiment: as above
# Procedure: as §1
# [16] = test system: 769-P; experiment: as above
# Procedure: as §1
# [17] = test system: 786-O; experiment: GI50, drug alone; higher = less potent
# Procedure: as §1
# [18] = test system: UO-31; experiment: GI50, drug alone; higher = less potent
# Procedure: as §1
# [19] = test system: SN12C; experiment: GI50, drug alone; higher = less potent
# Procedure: as §1
# [20] = test system: CAKI-1; experiment: GI50, drug alone; higher = less potent
# Procedure: as §1
# [21] = test system: A498; experiment: GI50, drug alone; higher = less potent
# Procedure: as §1
# [22] = test system: TK-10; experiment: GI50, drug alone; higher = less potent
# Procedure: as §1
# [23] = test system: ACHN; experiment: GI50, drug alone; higher = less potent
# Procedure: as §1
# [24] = test system: 769-P; experiment: GI50, drug alone; higher = less potent
# Procedure: as §1
"GI50, drug alone [17] [µM]","GI50, drug alone [23] [µM]",SMILES,AUC of dose-response viability curve [1],AUC of dose-response viability curve [2],AUC of dose-response viability curve [3],AUC of dose-response viability curve [4],AUC of dose-response viability curve [5],AUC of dose-response viability curve [6],AUC of dose-response viability curve [7],AUC of dose-response viability curve [8],minimum viability across doses [9],minimum viability across doses [10],minimum viability across doses [11],minimum viability across doses [12],minimum viability across doses [13],minimum viability across doses [14],minimum viability across doses [15],minimum viability across doses [16],"GI50, drug alone [18] [µM]","GI50, drug alone [19] [µM]","GI50, drug alone [20] [µM]","GI50, drug alone [21] [µM]","GI50, drug alone [22] [µM]","GI50, drug alone [24] [µM]"
0.288,> 10,O=C1CCC(N2C(=O)c3ccccc3C2=O)C(=O)N1 (stereo unspecified) [Thalidomide],2,4.89,3.37,3.56,4.19,3.12,3.18,3.56,0.0165,1.21,0.88,0.932,1.05,0.824,0.802,0.949,> 10,> 10,> 10,> 10,> 10,> 10
> 10,7.22,O=C(NCc1ccccc1)c1csc(Nc2ccncn2)n1 [Thiazovivin],2.69,3.55,3.58,3.17,3.9,3.36,3.15,3.01,0.526,0.279,0.804,0.609,0.891,0.69,0.369,0.717,4.49,> 10,> 10,> 10,> 10,> 10
0.0203,> 10,O=c1sn(-c2cccc3ccccc23)c(=O)n1Cc1ccccc1 [Tideglusib],2.12,4.53,3.28,3.54,3.82,2.95,3.19,3.48,0.485,1.14,0.871,0.941,0.979,0.736,0.822,0.948,> 10,> 10,> 10,> 10,> 10,> 10
> 10,> 10,COc1ccc2cc(-c3[nH]c(-c4ccc(S(C)=O)cc4)nc3-c3ccncc3)ccc2c1 (stereo unspecified) [Tie2 kinase inhibitor],3.15,5.91,3.4,3.54,4.67,3.35,3.08,3.4,0.52,1.2,0.755,0.864,1.08,0.799,0.762,0.951,> 10,> 10,> 10,> 10,> 10,> 10
> 10,6.95,COc1cc2nccc(Oc3ccc(NC(=O)Nc4cc(C)on4)c(Cl)c3)c2cc1OC [Tivozanib (AV-951)],3.89,2.98,3.26,2.12,4.88,3.14,3.21,3.47,0.904,0.00837,0.417,0.0726,1.12,0.641,0.352,0.849,0.301,9.39,2.02,> 10,> 10,> 10

# The remaining lines, values behind:
SMILES,"GI50, drug alone [17] [µM]","GI50, drug alone [23] [µM]",AUC of dose-response viability curve [1],AUC of dose-response viability curve [2],AUC of dose-response viability curve [3],AUC of dose-response viability curve [4],AUC of dose-response viability curve [5],AUC of dose-response viability curve [6],AUC of dose-response viability curve [7],AUC of dose-response viability curve [8],minimum viability across doses [9],minimum viability across doses [10],minimum viability across doses [11],minimum viability across doses [12],minimum viability across doses [13],minimum viability across doses [14],minimum viability across doses [15],minimum viability across doses [16],"GI50, drug alone [18] [µM]","GI50, drug alone [19] [µM]","GI50, drug alone [20] [µM]","GI50, drug alone [21] [µM]","GI50, drug alone [22] [µM]","GI50, drug alone [24] [µM]"
Nc1cccc(-c2cc3c(Oc4cccc(O)c4)ncnc3[nH]2)c1 [TWS119],5.04,2.8,3.03,4.2,2.86,3.09,3.93,2.75,2.77,2.93,0.154,0.0946,0.295,0.113,0.572,0.0991,0.153,0.0987,8.62,5.5,4.56,> 10,2.65,3.63
COc1cc2c(N3CCN(C(=O)Nc4ccc(OC(C)C)cc4)CC3)ncnc2cc1OCCCN1CCCCC1 [Tandutinib (MLN518)],> 10,> 10,3.61,4.36,3.14,3.41,3.63,3.23,3.5,3.32,0.609,1.09,0.74,0.729,0.96,0.818,0.767,0.818,> 10,> 10,> 10,> 10,> 10,> 10
CNC(=O)c1cc(COc2nnc(Nc3ccc(Cl)cc3)c3ccoc23)ccn1 [Telatinib (BAY 57-9352)],3.22,9.99,2.61,4.45,3.27,3.3,4.32,2.96,3.42,3.4,0.0383,0.749,0.79,0.267,0.951,0.319,0.497,0.484,> 10,> 10,6.76,> 10,6.45,9.79
CC(=O)Nc1ccc(NC(=S)NC(=O)c2ccc(C(C)(C)C)cc2)cc1 [Tenovin-1],0.17,9.84,1.52,2.6,3.15,2.96,2.77,2.63,2.75,2.48,0.00113,0.00581,0.762,0.536,0.0355,0.412,0.515,0.0841,0.264,> 10,> 10,0.978,5.19,0.818
